Activity data for three compounds are collected here from ChEMBL document CHEMBL4184224, “Degradation of huntingtin mediated by a hybrid molecule composed of IAP antagonist linked to phenyldiazenyl benzothiazole derivative” (Bioorg Med Chem Lett, 2018).

Molecules are shown by their SMILES. Active and inactive are the calls of the source. The rule behind the calls is not given here. Where a SMILES comes first, the peptide text is derived from it. [ ]: non-standard residue; d: D form. The star is where a group is joined. X1 = CN(C)c1ccc(/N=N/c2nc3ccc(OCCOCCOCCN*)cc3s2)cc1; Dip = N[C@H](C(=O)O)C(c1ccccc1)c1ccccc1; Chg = N[C@H](C(=O)O)C1CCCCC1; NMeA = CN[C@@H](C)C(=O)O

Common to all, as to format: protein assay
Experiment [1] deals with T1, Baculoviral IAP repeat-containing protein 3/Huntingtin (Homo sapiens) (UniProt Q13489+P42858). Description: Induction of IAP-huntingtin interaction-mediated huntingtin protein degradation in fibroblasts derived from Huntington's disease patient at 10 uM incubated for 24 to 72 hrs by Western blot method. A general note: A western blot detects proteins with antibodies after separation by electrophoresis.
T1 sequence (P42858 whole entry, looked up): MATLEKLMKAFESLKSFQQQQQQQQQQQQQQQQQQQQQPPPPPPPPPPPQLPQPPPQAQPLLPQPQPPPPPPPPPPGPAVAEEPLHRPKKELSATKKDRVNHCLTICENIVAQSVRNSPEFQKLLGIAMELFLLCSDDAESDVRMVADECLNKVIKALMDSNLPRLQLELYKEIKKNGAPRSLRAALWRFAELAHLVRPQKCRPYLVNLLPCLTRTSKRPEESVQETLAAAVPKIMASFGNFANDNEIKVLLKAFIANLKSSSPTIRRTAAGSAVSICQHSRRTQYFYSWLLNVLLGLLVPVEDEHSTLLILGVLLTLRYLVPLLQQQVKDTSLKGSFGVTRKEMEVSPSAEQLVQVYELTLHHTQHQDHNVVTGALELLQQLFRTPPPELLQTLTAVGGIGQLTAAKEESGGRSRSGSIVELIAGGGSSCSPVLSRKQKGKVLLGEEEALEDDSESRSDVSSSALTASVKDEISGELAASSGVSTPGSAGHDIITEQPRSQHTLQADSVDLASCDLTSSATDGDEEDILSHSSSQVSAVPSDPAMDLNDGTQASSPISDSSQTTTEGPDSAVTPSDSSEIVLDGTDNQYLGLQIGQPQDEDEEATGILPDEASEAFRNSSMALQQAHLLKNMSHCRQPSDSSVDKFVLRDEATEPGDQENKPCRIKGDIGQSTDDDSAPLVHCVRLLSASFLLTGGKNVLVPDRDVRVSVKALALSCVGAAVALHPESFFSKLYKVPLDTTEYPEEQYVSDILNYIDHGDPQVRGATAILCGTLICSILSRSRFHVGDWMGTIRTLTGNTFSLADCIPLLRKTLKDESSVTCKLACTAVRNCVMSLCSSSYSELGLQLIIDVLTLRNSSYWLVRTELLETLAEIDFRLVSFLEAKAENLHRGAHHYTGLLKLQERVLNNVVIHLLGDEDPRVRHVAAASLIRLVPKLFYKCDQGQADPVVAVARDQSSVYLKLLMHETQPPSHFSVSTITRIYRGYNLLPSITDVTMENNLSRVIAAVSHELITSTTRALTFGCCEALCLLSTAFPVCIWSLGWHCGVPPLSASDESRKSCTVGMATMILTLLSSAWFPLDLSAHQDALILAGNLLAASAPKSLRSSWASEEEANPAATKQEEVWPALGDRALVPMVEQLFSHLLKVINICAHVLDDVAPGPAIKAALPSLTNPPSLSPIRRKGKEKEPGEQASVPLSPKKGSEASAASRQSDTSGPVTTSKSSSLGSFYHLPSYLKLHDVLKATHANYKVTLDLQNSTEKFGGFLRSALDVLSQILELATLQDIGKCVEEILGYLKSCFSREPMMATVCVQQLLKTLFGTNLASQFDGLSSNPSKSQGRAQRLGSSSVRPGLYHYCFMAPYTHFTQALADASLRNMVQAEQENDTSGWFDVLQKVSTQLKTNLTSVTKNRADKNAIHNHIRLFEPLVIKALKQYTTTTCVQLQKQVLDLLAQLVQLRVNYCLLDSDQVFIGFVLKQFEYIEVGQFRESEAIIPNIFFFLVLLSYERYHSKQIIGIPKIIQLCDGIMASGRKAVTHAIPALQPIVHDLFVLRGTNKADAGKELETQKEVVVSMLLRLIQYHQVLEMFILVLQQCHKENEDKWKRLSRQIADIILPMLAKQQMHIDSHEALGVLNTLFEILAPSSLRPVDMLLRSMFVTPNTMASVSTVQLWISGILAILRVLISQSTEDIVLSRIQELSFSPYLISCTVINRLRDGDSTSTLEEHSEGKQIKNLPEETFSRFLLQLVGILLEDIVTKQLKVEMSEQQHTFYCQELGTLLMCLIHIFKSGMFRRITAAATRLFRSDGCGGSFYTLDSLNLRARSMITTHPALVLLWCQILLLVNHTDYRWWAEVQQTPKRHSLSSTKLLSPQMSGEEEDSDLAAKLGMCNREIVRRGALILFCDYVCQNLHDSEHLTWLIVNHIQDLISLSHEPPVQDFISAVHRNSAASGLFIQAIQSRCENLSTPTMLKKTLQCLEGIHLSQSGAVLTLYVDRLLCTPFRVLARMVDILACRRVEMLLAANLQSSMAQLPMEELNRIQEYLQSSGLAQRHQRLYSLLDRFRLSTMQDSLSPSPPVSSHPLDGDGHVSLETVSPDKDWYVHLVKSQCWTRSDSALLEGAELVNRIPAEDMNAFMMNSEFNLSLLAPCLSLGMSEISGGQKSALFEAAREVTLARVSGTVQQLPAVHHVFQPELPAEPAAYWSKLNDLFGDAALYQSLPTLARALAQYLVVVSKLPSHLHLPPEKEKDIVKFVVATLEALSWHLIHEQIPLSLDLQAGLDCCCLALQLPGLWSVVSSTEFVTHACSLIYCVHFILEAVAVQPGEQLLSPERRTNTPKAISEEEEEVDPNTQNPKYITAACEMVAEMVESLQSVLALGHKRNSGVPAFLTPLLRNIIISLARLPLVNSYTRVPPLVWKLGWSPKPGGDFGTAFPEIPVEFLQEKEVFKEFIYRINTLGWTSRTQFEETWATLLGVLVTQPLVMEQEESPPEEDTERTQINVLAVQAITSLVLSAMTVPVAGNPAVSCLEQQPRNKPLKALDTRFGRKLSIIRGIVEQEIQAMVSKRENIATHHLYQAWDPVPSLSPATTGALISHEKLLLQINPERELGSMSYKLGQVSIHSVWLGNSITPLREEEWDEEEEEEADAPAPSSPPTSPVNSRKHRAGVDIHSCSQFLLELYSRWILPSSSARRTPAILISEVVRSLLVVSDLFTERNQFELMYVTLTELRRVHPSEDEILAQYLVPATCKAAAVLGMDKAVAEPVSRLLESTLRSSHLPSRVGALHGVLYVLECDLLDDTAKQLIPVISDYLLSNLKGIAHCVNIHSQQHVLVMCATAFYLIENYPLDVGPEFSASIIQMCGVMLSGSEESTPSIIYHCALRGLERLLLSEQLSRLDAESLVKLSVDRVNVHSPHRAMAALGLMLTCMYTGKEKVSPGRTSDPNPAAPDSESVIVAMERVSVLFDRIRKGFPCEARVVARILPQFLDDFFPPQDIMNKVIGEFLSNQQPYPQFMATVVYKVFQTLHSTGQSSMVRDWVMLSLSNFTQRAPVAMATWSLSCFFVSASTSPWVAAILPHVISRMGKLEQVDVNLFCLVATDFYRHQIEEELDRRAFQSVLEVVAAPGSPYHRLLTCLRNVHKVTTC
T1 sequence (Q13489 whole entry, looked up): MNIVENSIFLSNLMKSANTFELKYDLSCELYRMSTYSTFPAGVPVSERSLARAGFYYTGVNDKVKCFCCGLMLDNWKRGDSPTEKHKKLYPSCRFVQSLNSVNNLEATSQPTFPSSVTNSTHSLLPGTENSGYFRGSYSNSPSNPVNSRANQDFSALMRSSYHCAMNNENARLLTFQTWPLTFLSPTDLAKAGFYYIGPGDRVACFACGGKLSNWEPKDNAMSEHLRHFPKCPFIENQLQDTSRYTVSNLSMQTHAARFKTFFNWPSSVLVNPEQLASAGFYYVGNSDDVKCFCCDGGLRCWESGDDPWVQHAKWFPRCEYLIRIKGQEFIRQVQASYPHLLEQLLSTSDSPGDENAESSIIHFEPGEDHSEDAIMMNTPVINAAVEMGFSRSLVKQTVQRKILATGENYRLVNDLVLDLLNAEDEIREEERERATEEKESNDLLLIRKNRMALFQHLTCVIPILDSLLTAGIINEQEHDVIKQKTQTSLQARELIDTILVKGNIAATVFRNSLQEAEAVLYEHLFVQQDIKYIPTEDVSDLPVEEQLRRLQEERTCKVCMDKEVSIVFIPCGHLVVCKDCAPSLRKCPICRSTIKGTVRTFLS

In experiment [2] the target is T1, Baculoviral IAP repeat-containing protein 3/Huntingtin (Homo sapiens). Kind of experiment: Induction of IAP-huntingtin interaction-mediated huntingtin protein degradation in fibroblasts derived from normal human subjects assessed as huntingtin protein level at 10 uM incubated for 24 hrs by Western blot method (reference value: 100%).
Experiment [3] has the same target. Kind of experiment: Induction of IAP-huntingtin interaction-mediated huntingtin protein degradation in fibroblasts derived from normal human subjects at 10 uM incubated for 24 to 72 hrs by Western blot method.
Experiment [4] has the same target. Kind of experiment: Induction of IAP-huntingtin interaction-mediated huntingtin protein degradation in fibroblasts derived from normal human subjects assessed as huntingtin protein level at 10 uM incubated for 96 hrs by Western blot method (reference value: 100%).
The target is the same in experiment [5]. Description: Induction of IAP-huntingtin interaction-mediated huntingtin protein degradation in fibroblasts derived from normal human subjects assessed as huntingtin protein level at 10 uM incubated for 72 hrs by Western blot method (reference value: 100%).
Experiment [6] shares this target. Description: Induction of IAP-huntingtin interaction-mediated huntingtin protein degradation in fibroblasts derived from normal human subjects assessed as huntingtin protein level at 10 uM incubated for 48 hrs by Western blot method (reference value: 100%).
For experiment [7] the target is unchanged. Kind of experiment: Induction of IAP-huntingtin interaction-mediated huntingtin protein degradation in fibroblasts derived from Huntington's disease patient incubated for 24 hrs by Western blot method.
Experiment [8] shares this target. Kind of experiment: Induction of immobilized GST tagged BIR3 (unknown origin)/soluble GST-tagged huntingtin 62Q mutant (unknown origin) interaction at 3 to 30 uM incubated for 1.5 hrs at 37 degC by ELISA. On the technique in general: An ELISA detects its analyte on a solid surface through an enzyme-linked reagent.
For experiment [9] the target is unchanged. Description: Induction of immobilized GST tagged BIR3 (unknown origin)/insoluble GST-tagged huntingtin 62Q mutant (unknown origin) interaction at 3 to 30 uM incubated for 1.5 hrs at 37 degC by ELISA.
The target is the same in experiment [10]. Description: Induction of immobilized GST tagged BIR3 (unknown origin)/soluble GST-tagged huntingtin 62Q mutant (unknown origin) interaction at 10 uM in presence of 3 and 10 uM MV1 incubated for 1.5 hrs at 37 degC by ELISA.
Experiment [11] shares this target. Description: Induction of immobilized GST tagged BIR3 (unknown origin)/soluble GST-tagged huntingtin 62Q mutant (unknown origin) interaction at 10 uM in presence of 10 and 100 uM thioflavin T incubated for 1.5 hrs at 37 degC by ELISA.
The target is the same in experiment [12]. Kind of experiment: Induction of IAP-huntingtin interaction-mediated huntingtin protein degradation in fibroblasts derived from Huntington's disease patient incubated for 48 to 72 hrs by Western blot method.

In the case of `CC(C)C[C@H](NC(=O)[C@@H](O)[C@H](N)Cc1ccccc1)C(=O)NCCOCCOCCOc1ccc2nc(/N=N/c3ccc(N(C)C)cc3)sc2c1`, the result in experiment [1], in experiment [2], in experiment [3], in [4], in [5] and in experiment [6] was Active.
For the compound `CN[C@@H](C)C(=O)N[C@H](C(=O)N1CCC[C@H]1C(=O)N[C@H](C(=O)NCCOCCOCCOc1ccc2nc(/N=N/c3ccc(N(C)C)cc3)sc2c1)C(c1ccccc1)c1ccccc1)C1CCCCC1` (H-[NMeA][Chg]P[Dip]-X1), the Activity entry in experiment [7] is “Dose-dependent effect”; in [2], 72%; in experiment [4], 44%; in experiment [5], 76%; in experiment [6] it was 70%. Also, the outcome in experiment [1], in [8], in experiment [9] and in [12] was Active. Also, the outcome in experiment [10] and in [11] was inactive.
Regarding `Cc1ccc2nc(-c3ccc(NCCOCCOCCNC(=O)[C@H](CC(C)C)NC(=O)[C@@H](O)[C@H](N)Cc4ccccc4)cc3)sc2c1`, the result in [1], in [2], in experiment [3], in experiment [4], in experiment [5] and in experiment [6] was Active.
